Earlier results, collected in US10694745B2, “Method for controlling rust” (UPL LIMITED, priority 2013, dated 2020).

Tests used:
[1] = test system: Phakopsora pachyrhizi; details: single fungicide
[2] = test system: soybean; details: in vivo

SMILES	control of soybean rust [1]	phytotoxicity [2]
CO/C=C(/C(=O)OC)c1ccccc1Oc1cc(Oc2ccccc2C#N)ncn1 [Azoxystrobin]	good control	
O=C(Nc1ccccc1-c1ccc(Cl)cc1)c1cccnc1Cl [Boscalid]	moderate control	
c1ccc2[nH]c(-c3cscn3)nc2c1 [Thiabendazole]		phytotoxic
